Article PMC7351949, “Molecular basis for the distinct functions of redox-active and FeS-transfering glutaredoxins” (Nature Communications, 2020)

Key:
Grx2 = target: T1, Grx2 (Homo sapiens, UniProt Q9NS18); assay: UV/Vis spectroscopy of reconstituted holo-complex; format: binding; settings: bridges a dimer, co-ligated by two GSH; reconstituted with GSH, cysteine, iron and IscS, pH 8.0
T1 construct: gene GLRX2; Grx2c, His-tagged, recombinant from E. coli, IMAC purified; monomeric apo form, dimeric as Fe2S2 holo-complex
T1 sequence (Q9NS18 1-165 isoform Q9NS18-2): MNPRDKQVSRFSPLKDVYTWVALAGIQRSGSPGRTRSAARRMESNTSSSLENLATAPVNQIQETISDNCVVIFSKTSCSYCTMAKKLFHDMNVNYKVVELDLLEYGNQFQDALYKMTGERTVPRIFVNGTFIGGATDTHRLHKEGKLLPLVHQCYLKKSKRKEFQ

Grx5 = target: T2, Grx5 (Homo sapiens, UniProt Q86SX6); assay: UV/Vis spectroscopy of reconstituted holo-complex; format: binding; settings: bridges a dimer, co-ligated by two GSH; reconstituted with GSH, cysteine, iron and IscS, pH 8.0
T2 construct: gene GLRX5; transit peptide removed (forward primer encodes M-GSGAG...), pET15b, His-tagged, recombinant from E. coli, IMAC purified; dimeric as Fe2S2 holo-complex
T2 sequence (Q86SX6 33-157): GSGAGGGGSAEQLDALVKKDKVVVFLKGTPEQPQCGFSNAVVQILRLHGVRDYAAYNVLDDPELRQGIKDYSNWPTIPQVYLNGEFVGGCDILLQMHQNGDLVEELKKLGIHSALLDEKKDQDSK

AtGrxC1 = target: T3, AtGrxC1 (Arabidopsis thaliana, UniProt Q8L8T2); assay: HED assay, NADPH / glutathione reductase coupled; format: biochemical; settings: read-out: HED assay / Km app (HED) / μM; 1 mM GSH, 200 µM NADPH, yeast glutathione reductase, 100 mM potassium phosphate pH 7.8; actual substrate is the mixed disulfide βME-SG formed from HED and GSH
T3 construct: gene GRXC1; His-tagged, recombinant, IMAC purified
T3 sequence (Q8L8T2 whole entry): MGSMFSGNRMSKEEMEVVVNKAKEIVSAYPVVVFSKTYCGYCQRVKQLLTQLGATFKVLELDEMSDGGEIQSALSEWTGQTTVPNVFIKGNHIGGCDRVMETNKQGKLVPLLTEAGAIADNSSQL
From the text: HED assay, NADPH / glutathione reductase coupled on AtGrxC1

Row | SMILES | UV/Vis spectroscopy of reconstituted holo-complex (Grx2) | UV/Vis spectroscopy of reconstituted holo-complex (Grx5) | Km (AtGrxC1) [µM]
1 | [S]1[Fe][S][Fe]1 [Fe2S2 cluster] | The UV/VIS spectra (Fig. 4a) demonstrate the ability of all proteins to form FeS | The UV/VIS spectra (Fig. 4a) demonstrate the ability of all proteins to form FeS | –
2 | OCCSSCCO [HED] | – | – | 773 ± 164
